From patent US6730775B1, “Methods for limiting scar and adhesion formation” (University of Southern California, priority 1999, dated 2004)
Entries after “also recorded” stand apart in the source; their conditions may differ. Where no end group is shown, it is not given here. [ ]: non-standard residue; d: D form. Nle = CCCC[C@H](N)C(=O)O

Columns and labels:
[1] = tested on: 2 cm midline laparotomy incision; assay: Anti-scarring effect after rat laparotomy (Example 1); type: in vivo, Sprague Dawley rats; conditions: 100 μg/kg/day subcutaneously, 3 days prior to surgery and 11 days until necropsy; 11 day post-operative observation
Description: Female Sprague Dawley rats, weighing between 175 and 225 grams each, were used in this study. The rats were quarantined at least two days prior to surgery. The rats were housed in the University of Southern California vivarium on a 12:12 hour light/dark cycle. Food and water were available ad libitum except in the immediate postoperative period.
The rats underwent a standardized procedure for laparotomy (intramuscular anesthesia with ketamine/rompum, shaving with animal clippers, betadine scrub, alcohol scrub). A 2 cm incision was then made on the midline. A double-walled gelatin capsule was placed on the right side of the abdomen through the incision. The animals were subcutaneously injected with the peptides (detailed below) (100 μg/kg/day) for 3 days prior to surgery, and then for 11 days until necropsy. The abdominal wall and skin was then sutured closed using two layers of 4-0 Ethilon suture. Following surgery, the rats received analgesic for three days and were observed twice daily for signs of morbidity and mortality.

[2] = Unspecified test of effectiveness of AII fragments; conditions: test not specified
[3] = tested on: full thickness incision wounds; assay: Rat full thickness incision model (Example 2); type: in vivo, Sprague Dawley rats; conditions: for early inflammation and wound dehiscence / number of incisions that were free of scar / overall scar formation: into the subcutaneous space prior to closure with DermaBond; for early inflammation and wound dehiscence: FIG. 1, day 5; for number of incisions that were free of scar: later time points after healing, FIG. 2, days 14, 19, 21; for overall scar formation: later time points, FIG. 3, scar score rank days 14 and 19; for healing time / number of incisions with no scar by gross observations: repeated; for healing time: systemic administration (especially pretreatment with 100 μg/kg body weight/day of 9GD), FIGS. 4-6; for number of incisions with no scar by gross observations: systemic administration, FIGS. 7-9, days 14 and 21
Description: This study was designed to compare the effect of a daily administration of AII(1-7) and 9GD on the healing of full thickness incision wounds in a rat model. For topical administration, the viscous vehicle was prepared from carboxymethylcellulose (CMC sodium salt, low viscosity, Sigma Chemical CO., St. Louis, Mo. (Lot number 34H0310)), consisting of 10% low viscosity CMC in 0.05 M phosphate buffer, pH 7.2, and was sterilized by autoclaving followed by mixing with sterile peptide solutions or DermaBond (provided by Ethicon, Inc.), AII(1-7) and 9GD were prepared by Bachem (Torrence, Calif.) under GMP conditions.
During the experimental period, Sprague Dawley rats (5 per group) were used in this study. The rats were housed one per cage in the University of Southern California vivarium on a 12:12 hour light/dark cycle. Food and water were available ad libitum.
On the dorsal surface of the rats, two full thickness incisions (approximately 3 cm in length) were made on a prepared surface under aseptic conditions. After injury, placebo or AII(1-7) (100 μg/wound [topical], or 100 μg/kg body weight [systemic]) or 9GD (10, 100, or 500 μg/wound [topical], or 10, 100, or 500 μg/kg body weight [systemic]) was administered. The wound was sutured closed (if the peptide was not given in an adhesive base) or was closed with […] (in groups that have the peptide administered with cyanoacrylate (DermaBond™)).
The animals were monitored for breathing, urination, and movement during the postoperative interval. Postoperative analgesic included twice daily administration of bupronex for 3 days post-operation. […] On day 21, the rats were euthanized by CO2 asphyxiation and tissues were harvested for histologic preparation.
Scar formation was assessed grossly, including assessment of inflammationh, dehiscence, scabbing, healing (defined as % of incision healed), and scarring. Inflammation, dehiscence, scabbing, and scarring were assessed on a 4 point scale (0, 1, 2, or 3) for none, mild, moderate, and severe, respectively. The severity of the scar was defined by the appearance of disruption, the contour of the healing site, the raising of the healing area, and the ability to note by gross observation that the wound had been made.

wound tissue = conditions: application to wound tissue; cited from earlier work
rabbit corneal eye = rabbit corneal eye model; cited from earlier work
[4] = tested on: cultured cells that are involved in wound repair; conditions: cited from earlier work
[5] = tested on: primary human keratinocytes; conditions: via a non-AT1, non-AT2 receptor; cited from earlier work
[6] = tested on: chick chorioallantoic membrane; conditions: chick chorioallantoic membrane model; cited from earlier work
[7] = single dose in CMC in the subcutaneous space, FIG. 10
[8] = single dose in CMC in the subcutaneous space, FIG. 11

DRKYIHP [5GD]
scar apparent upon gross observation [1]: no scar was apparent
wound closure [1]: complete

His-Pro-Phe (HPF) [AII(6-8)]
effectiveness [2]: not to be effective

DR(nor)YIHP (DR[Nle]YIHP) [9GD]
scar apparent upon gross observation [1]: no scar was apparent
wound closure [1]: complete
early inflammation and wound dehiscence [3]: reduced
number of incisions that were free of scar [3]: increased
overall scar formation [3]: increased
healing time [3]: accelerated
number of incisions with no scar by gross observations [3]: increased
healing [3, 7]: accelerated healing
scar formation [3, 8]: reduced scar formation
healing ([3]; single dose, systemic): did not accelerate healing
scar formation ([3]; single dose, systemic): did reduce scar formation

Asp-Arg-Val-Tyr-Ile-His-Pro-Phe [AII]
rate of wound healing (wound tissue): significantly increases
angiogenic (rabbit corneal eye): angiogenic
mitogenesis and chemotaxis [4]: increases
release of growth factors and extracellular matrices [4]: increases
proliferation of primary human keratinocytes [5]: stimulate proliferation
angiogenic [6]: angiogenic

Tyr-Ile-His-Pro-Phe (YIHPF) [AII(4-8)]
effectiveness [2]: not to be effective; also recorded: ineffective

Asp-Arg-Val-Tyr-Ile-His-Pro (DRVYIHP) [AII(1-7)]
early inflammation and wound dehiscence [3]: reduced
number of incisions that were free of scar [3]: increased
overall scar formation [3]: increased
healing time [3]: accelerated
number of incisions with no scar by gross observations [3]: increased
healing [3, 7]: accelerated healing
scar formation [3, 8]: reduced scar formation
healing ([3]; single dose, systemic): did not accelerate healing
scar formation ([3]; single dose, systemic): did reduce scar formation
